Experiments:
SvePatA [1] = biological target: T1, SvePatA (Streptomyces venezuelae, UniProt F2RA54); assay: coupled NADH assay, initial rate; CD shift also seen with […] Asn; format: biochemical; settings: allosteric activator; co-substrates Ac-CoA and SveAcs
T1 construct: gene SVEN_0867; gene amplified from genomic DNA, pET-28a, E. coli BL21-DE3, purified; ACT-GNAT domains
T1 sequence (F2RA54 1-488): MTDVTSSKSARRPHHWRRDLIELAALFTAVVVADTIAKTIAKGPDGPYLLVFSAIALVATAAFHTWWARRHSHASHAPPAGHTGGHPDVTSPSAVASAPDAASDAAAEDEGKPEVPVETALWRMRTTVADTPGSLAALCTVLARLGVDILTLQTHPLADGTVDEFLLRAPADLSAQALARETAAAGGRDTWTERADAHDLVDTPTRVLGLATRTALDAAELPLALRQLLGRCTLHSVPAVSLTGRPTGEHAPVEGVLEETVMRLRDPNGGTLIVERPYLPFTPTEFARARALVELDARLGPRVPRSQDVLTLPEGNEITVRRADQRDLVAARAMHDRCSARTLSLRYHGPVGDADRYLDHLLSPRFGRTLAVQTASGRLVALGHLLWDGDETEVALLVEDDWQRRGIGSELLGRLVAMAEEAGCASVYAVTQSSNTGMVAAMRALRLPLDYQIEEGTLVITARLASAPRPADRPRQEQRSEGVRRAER

SvePatA [2] = biological target: T2, SvePatA (Streptomyces venezuelae, UniProt F2RA54, K112A); assay: acetyltransferase activity with Asn; format: biochemical; settings: allosteric; co-substrates Ac-CoA and SveAcs
T2 construct: gene SVEN_0867; gene amplified from genomic DNA, pET-28a, E. coli BL21-DE3, purified; ACT-GNAT domains

AmiPatA = biological target: T3, AmiPatA (Actinosynnema mirum, UniProt C6WC99); assay: coupled NADH assay, initial rate; CD shift also seen; format: biochemical; settings: allosteric activator, ACT domain; co-substrates Ac-CoA and AmiAcs
T3 construct: gene Amir_5672; gene amplified from genomic DNA, pET-28a, E. coli BL21-DE3, purified; ACT-GNAT domains
T3 sequence (C6WC99 1-372): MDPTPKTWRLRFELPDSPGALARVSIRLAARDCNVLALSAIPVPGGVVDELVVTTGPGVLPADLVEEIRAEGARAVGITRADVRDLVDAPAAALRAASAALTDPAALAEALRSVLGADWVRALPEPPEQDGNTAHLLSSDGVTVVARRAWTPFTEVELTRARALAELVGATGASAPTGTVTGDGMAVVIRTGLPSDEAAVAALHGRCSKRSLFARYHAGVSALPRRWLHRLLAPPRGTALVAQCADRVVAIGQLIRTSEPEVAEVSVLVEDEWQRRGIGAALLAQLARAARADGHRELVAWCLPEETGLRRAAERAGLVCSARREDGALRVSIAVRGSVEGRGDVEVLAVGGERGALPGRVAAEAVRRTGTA

purified protein = substrate: CC(=O)SCCNC(=O)CCNC(=O)[C@H](O)C(C)(C)COP(=O)(O)OP(=O)(O)OC[C@H]1O[C@@H](n2cnc3c(N)ncnc32)[C@H](O)[C@@H]1OP(=O)(O)O; assay: purified protein; format: biochemical, Actinosynnema mirum; settings: co-substrate AmiAcs; no Cys

T2 sequence (F2RA54 entry or part of it K112A): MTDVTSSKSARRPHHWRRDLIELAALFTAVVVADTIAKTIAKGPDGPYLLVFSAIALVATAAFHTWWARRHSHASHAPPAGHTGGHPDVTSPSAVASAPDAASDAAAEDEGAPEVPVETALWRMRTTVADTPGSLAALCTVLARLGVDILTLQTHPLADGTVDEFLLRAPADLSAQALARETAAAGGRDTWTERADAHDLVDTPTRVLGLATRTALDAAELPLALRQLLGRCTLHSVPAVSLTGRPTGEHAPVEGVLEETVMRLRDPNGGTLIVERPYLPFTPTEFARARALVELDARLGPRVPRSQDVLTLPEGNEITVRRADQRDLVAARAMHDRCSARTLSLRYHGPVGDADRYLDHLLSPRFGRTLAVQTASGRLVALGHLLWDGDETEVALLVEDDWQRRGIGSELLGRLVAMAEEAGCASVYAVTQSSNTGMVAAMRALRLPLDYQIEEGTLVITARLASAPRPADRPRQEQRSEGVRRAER

## NC(=O)C[C@H](N)C(=O)O [Asn]
SvePatA [1]
  % of initial rate without Asn (2.23 to 3.92 nmol NADH per min/ml): 176%
SvePatA [2]
  activation still observed: Allosteric effect of Asn on SvePatA activity was still observed in two mutants K112A

## N[C@@H](CS)C(=O)O [Cys]
AmiPatA
  % of initial rate without Cys (3.8 to 6.8 μM/min): 179%

B1: AmiPatA (Actinosynnema mirum DSM 43827) (protein)
chain: MDPTPKTWRLRFELPDSPGALARVSIRLAARDCNVLALSAIPVPGGVVDELVVTTGPGVLPADLVEEIRAEGARAVGITRADVRDLVDAPAAALRAASAALTDPAALAEALRSVLGADWVRALPEPPEQDGNTAHLLSSDGVTVVARRAWTPFTEVELTRARALAELVGATGASAPTGTVTGDGMAVVIRTGLPSDEAAVAALHGRCSKRSLFARYHAGVSALPRRWLHRLLAPPRGTALVAQCADRVVAIGQLIRTSEPEVAEVSVLVEDEWQRRGIGAALLAQLARAARADGHRELVAWCLPEETGLRRAAERAGLVCSARREDGALRVSIAVRGSVEGRGDVEVLAVGGERGALPGRVAAEAVRRTGTA
notes: gene amplified from genomic DNA, pET-28a, E. coli BL21-DE3, purified; ACT-GNAT domains
Purified protein
  Km: 5.5 ± 1.1 µM
  kcat: 0.19 ± 0.008 s⁻¹
  kcat/Km: 36000 ± 8000 M⁻¹ s⁻¹
